This is an account of results in patent publication US12570704B2, “Functionally modified maytansinoids and compositions and methods of use thereof” (University of Georgia Research Foundation, Inc., priority 2019, dated 2026).

Series [1] relates to H1299 cells. Put plainly: Superoxide dismutase (SOD) assay, cytosolic and mitochondrial. The series is classed as cell-based, human. The settings on record: +RT (6 Gy), 20 nM, compared to DM1+RT. The procedure: Around 3×10^4 cells per well were seeded into each well of a six-well plate and cultured overnight. The cells treated with free drug (DM1 and DM1-NO), and drug loaded nanoparticles (DM1-NPs and DM1-NO-NPs) were given the same concentration of drug (20 nM) and irradiated with 6 Gy of radiation. The plates were then incubated for 24 h. After the treatment, the cells were rinsed with PBS, and the cell pellets were collected using a cell scraper. Cells were homogenized using a sonicator in ice-cold 20 mM 4-(2-hydroxyethyl)-1-piperazineethanesulfonic acid (HEPS) buffer (pH 7.2, containing 1 mM of ethylene glycol-bis(β-aminoethyl ether)-N,N,N′,N′-tetraacetic acid, also known as EGTA; Millipore Sigma, USA), […] of mannitol, and 70 mM sucrose. Following homogenization, a pellet was formed by centrifugation at 15,000×g for 15 minutes at 4° C. The supernatant was collected, and an assay was immediately performed to assess cytosolic SOD levels by comparing to a standard curve. To measure mitochondrial SOD levels, the pellet was resuspended in ice-cold PBS, and the sample was measured accordingly.

The subject of series [2] is H1299 cells. Briefly: MTT cell viability assay, 72 h, in the presence of RT. The series is classed as cell-based, human. The settings on record: Homo sapiens, NCI-H1299, with RT. The procedure: FIGS. 7A-7E are plots showing the results of a cell cycle analysis, based on PI staining and assessed by flow cytometry. H1299 cells were incubated with PBS (7A), DM1 (7B), DM1-NO (7C), DM1-NPs (7D), or DM1-NO-NPs (20 nM, DM1 concentration) (7E) before analysis. […] FIG. 7G is a bar graphs showing Percentage of tubulin inhibition. Tubulin polymer was collected by centrifugation (35000×g for 1 h at 30° C.) and the amount of tubulin protein sediment was quantified by measuring protein concentration. ***, P<0.001. FIG. 7H is a line graph showing cell viability, tested with H1299 cells using 72-h MTT in the presence of RT. DM1, DM1-NO, and DM1-NO-NPs were studied.
The viability of the H1299 cells after different treatments was measured by (4,5-dimethythiazon-2-yl)-2,5-diphenyl tetrazolium bromide (MTT) assay using an Infinite M200 microplate reader (BioTek's Synergy™ Mx, USA). Around 3×10^3 cells per well were seeded into a 96-well plate and cultured overnight until the cells fully adhered to the bottom of the plate. The cells were treated with different treatment groups, including free drugs (DM1 and DM1-NO), and drug loaded nanoparticles (DM1-NPs and DM1-NO-NPs) for 72 h. […] The plate was gently shake for 5 min (instrument setup) to dissolve the formazan crystals, and the absorbance at 570 nm was recorded by a microplate reader. […]

Series [3] deals with H1299 cells. Briefly: MTT cell viability assay, 72 h, without RT. The settings on record: Homo sapiens, NCI-H1299. The format is cell-based, human. How it is done: The viability of the H1299 cells after different treatments was measured by (4,5-dimethythiazon-2-yl)-2,5-diphenyl tetrazolium bromide (MTT) assay using an Infinite M200 microplate reader (BioTek's Synergy™ Mx, USA). Around 3×10^3 cells per well were seeded into a 96-well plate and cultured overnight until the cells fully adhered to the bottom of the plate. The cells were treated with different treatment groups, including free drugs (DM1 and DM1-NO), and drug loaded nanoparticles (DM1-NPs and DM1-NO-NPs) for 72 h. […] After that MTT reagent (in 20 μL PBS, 5 mg/mL) was added to each well. The cells were further incubated for 4 h at 37° C. The medium in each well was then removed and replaced by 100 μL DMSO. The plate was gently shake for 5 min (instrument setup) to dissolve the formazan crystals, and the absorbance at 570 nm was recorded by a microplate reader. Each experiment condition was run three times and the data were shown as the mean value plus a standard deviation (±SD).

Series [4] can be described thus: Time-dependent NO release in PBS of different pH (Sievers NOA 280i chemiluminescence). The format is physicochemical. An excerpt: (§1) FIGS. 1A and 1B are schemes illustrating how DM1-NO encapsulated PLGA-b-PEG nanoparticles (DM1-NO-NPs) can accumulate in tumors through the EPR effect. In the presence of radiation and/or reduced pH in endosomes/lysosomes, the S—N bond was broken, releasing DM1 and NO. DM1 inhibits microtubule assembly, arresting cells at the more radiosensitive G2/M phase. Meanwhile, NO can react with ROS to form radicals such as peroxynitrites, causing DNA and lipid damages. The combined effects enhance the efficacy of RT. […] Quantification was based on Greiss assay. PBS, cell culture medium (RPBI-1640), DM1, and DM1-NPs were tested as controls. FIG. 1D is a histogram showing the results of DLS analysis of DM1-NO-NPs in water. FIG. 1E is a plot showing the zeta potential of DM1-NO-NPs in water. FIG. 1F is a bar graph illustrating the stability of DM1-NO under ambient conditions. After synthesis, dry product of DM1-NO was kept at room temperature and the total amount of remaining NO was quantified using Griess assay on Day 0, 7, 14, and 21. FIG. 1G is plot illustrating the stability of DM1-NO in solutions. DM1-NO (20.09 μmol) was dissolved in PBS of different pH (5.5, 6.5, and 7.4). Time-dependent NO release was measured on a Sievers NOA 280i system, which assesses NO based on gas phase chemiluminescent reaction between NO and ozone. FIG. 1H is a line graph showing release profiles for DM1-NO-NPs, tested in PBS of different pH at 37° C. by Greiss assays. FIG. 1I is a histogram showing the results of DLS analysis of DM1-NPs. FIG. 1J is a plot showing the zeta potential of DM1-NPs. FIG. 1K is a series of representative images of clonogenic assays. H1299 cells were treated with 20 nM of DM1 and DM1-NO for 12 h, followed −X-ray irradiation (6 Gy). The resulting cells were plated for clonogenic assays. FIG. 1L is a plot showing UV-vis analysis of DM1-NO, PLGA-b-PEG and DM1-NO-NPs. FIG. 1M is a plot showing FT-IR analysis of DM1-NO, PLGA-b-PEG and DM1-NO-NPs. FIG. 1N is a plot showing the results of DLS analysis (hydrodynamic size) over time for DM1-NO-NPs that were incubated in PBS for 24 h.
DM1-NO was stable under ambient conditions in the powder form. According to Griess assay, less than 10% of the compound was degraded over 2 weeks' storage at room temperature (FIG. 1F). […] (FIG. 1G), and the degradation was accelerated at low pH (e.g. pH 6.5 or 5.5, FIG. 1G, Table 1), and under X-ray irradiation (FIG. 1C).

Series [5] can be described thus: Stability of dry DM1-NO under ambient conditions (Griess assay). The format is physicochemical. The settings on record: powder form, 2 weeks' storage at room temperature.
Excerpt: as §1, with “FIG. 1H is a line graph showing release profiles for DM1-NO-NPs, tested in PBS of different pH at 37° C. by Greiss assays. FIG. 1I is a histogram showing the results of DLS analysis of DM1-NPs. FIG. 1J is a plot showing the zeta potential of DM1-NPs. FIG. 1K is a series of representative images of clonogenic assays. H1299 cells were treated with 20 nM of DM1 and DM1-NO for 12 h, followed −X-ray irradiation (6 Gy). The resulting cells were plated for clonogenic assays. FIG. 1L is a plot showing UV-vis analysis of DM1-NO, PLGA-b-PEG and DM1-NO-NPs. FIG. 1M is a plot showing FT-IR analysis of DM1-NO, PLGA-b-PEG and DM1-NO-NPs. FIG. 1N is a plot showing the results of DLS analysis (hydrodynamic size) over time for DM1-NO-NPs that were incubated in PBS for 24 h.” left out

Series [6] in a line: NO release in solution with and without 6 Gy X-ray irradiation (Greiss assay). The format is physicochemical. The conditions noted are these: for NO release: Greiss assay.
Excerpt: as §1, with “The resulting cells were plated for clonogenic assays. FIG. 1L is a plot showing UV-vis analysis of DM1-NO, PLGA-b-PEG and DM1-NO-NPs. FIG. 1M is a plot showing FT-IR analysis of DM1-NO, PLGA-b-PEG and DM1-NO-NPs. FIG. 1N is a plot showing the results of DLS analysis (hydrodynamic size) over time for DM1-NO-NPs that were incubated in PBS for 24 h.” left out
NO concentration was assessed to determine the amount of DM1-NO prodrug loaded into the DM1-NO-NPs. […] Therefore, to quantify the overall NO amount, the total nitrite (NO2-) and nitrate (NO3-) concentrations in a NP solution cells) were measured using Nitrate/Nitrite Colorimetric assay (Cayman Chemical) by following the vendor's protocol. […]

`COc1cc2cc(c1Cl)N(C)C(=O)C[C@@H](OC(=O)[C@H](C)N(C)C(=O)CCSN=O)[C@]1(C)OC1[C@H](C)[C@@H]1C[C@@](O)(NC(=O)O1)[C@H](OC)/C=C\C=C(/C)C2` (stereo partly drawn) [DM1-NO]: the “increase of cytosol SOD activity” value in the series on H1299 cells [1] is recorded as 70.08%. Besides, in the series with H1299 cells [1], the “increase of mitochondrial SOD activity” value is 24.36%. Moreover, the IC50 in the series on H1299 cells [2] turned out to be 14.9 nM; with H1299 cells [3], 25.9 nM. In series [4] (PBS at 37° C., accelerated at low pH and under X-ray), the degradation in solution entry was “gradually broke down”. In addition, the “Average NO Release (per μL of sample)” value came out at 1.29E−07 μmol NO/min in series [4] (PBS pH 5.5), 7.81E−08 μmol NO/min in series [4] (PBS pH 6.5) and 7.83E−08 μmol NO/min in series [4] (PBS pH 7.4). In addition, in series [5], the compound degraded result is listed as “less than 10%”. The “increase of NO release” value in series [6] (6 Gy X-ray irradiation applied to solution) came out at 5.14 fold. Also, the NO release in series [6] (before 6 Gy X-ray irradiation) was found to be 3.68 µM; in series [6] (in the presence of 6 Gy X-ray irradiation), 18.88 µM.
